The record followed here is ChEMBL document CHEMBL4385630, “The synthesis and evaluation of quinolinequinones as anti-mycobacterial agents” (2019).

Assay [1] can be described thus: Electrochemical behavior of the compound in acetonitrile assessed as redox potential E1 at 1 mM using Ag/Ag+ electrode by cyclic voltammetry.
Assay [2] is described as follows: Electrochemical behavior of the compound in acetonitrile assessed as redox potential E2 at 1 mM using Ag/Ag+ electrode by cyclic voltammetry.
In assay [3] the test system is Mycobacterium tuberculosis. As to the kind of experiment: Antimycobacterial activity against Mycobacterium tuberculosis MC2 6230 assessed as reduction in cell viability incubated for 5 days by resazurin based method. The conditions noted are these: MC2 6230, 120 h. The class given is functional. For orientation: Alamar Blue is a resazurin reagent that responds to reducing activity.

Assay [4] in a line: Electrochemical behavior of the compound in acetonitrile/tolunene assessed as redox potential E1 at 1 mM using Ag/Ag+ electrode by cyclic voltammetry.
A short description of assay [5]: Electrochemical behavior of the compound in acetonitrile/tolunene assessed as redox potential E2 at 1 mM using Ag/Ag+ electrode by cyclic voltammetry.
The subject of assay [6] is Mycolicibacterium smegmatis MC2 155. As to the kind of experiment: Activation of NDH-2 in Mycobacterium smegmatis MC2 155 inverted membrane vesicles assessed as increase in oxygen consumption rate in presence of NADH by fluorespirometry.
Assay [7] concerns Mycobacterium tuberculosis. As to the kind of experiment: Antimycobacterial activity against Mycobacterium tuberculosis H37Rv incubated fro 96 hrs. It is filed as functional.
The subject of assay [8] is Mycobacterium tuberculosis. Put plainly: Antimycobacterial activity against Mycobacterium tuberculosis incubated for 7 days by resazurin dye based assay. The conditions noted are these: 168 h. It is filed as functional.

In brackets after ≈: the same amount, converted by molar mass. Activity calls are given as the source filed them. The rule behind the calls is not given here.

`CCCCCCCc1ccc(NC2=C(Cl)C(=O)c3cccnc3C2=O)cc1`: the figures for the Activity in assay [1] and in assay [2] were -0.57 V and -1.08 V, respectively. Further, the MIC in assay [3] worked out at 32 µM (≈ 12.3 µg/mL).

Consider `C#CCNC1=C(Cl)C(=O)c2ccc(C)nc2C1=O`, for which the values for the Activity in assay [1] and in assay [2] were -0.51 V and -1.1 V, respectively. In addition, the minimum inhibitory concentration (MIC) in assay [3] is 256 µM (≈ 66.7 µg/mL).

Take `CCCCCCCCCCCCCCc1ccc(NC2=C(Cl)C(=O)c3cccnc3C2=O)cc1`: the Activity in assay [4] was -0.44 V; in assay [5], -1 V. Also, in assay [3], the MIC is above 512 µM.

On to `COc1ccc(CNC2=C(Cl)C(=O)c3ccc(C)nc3C2=O)cc1`, for which the Activity is -0.52 V in assay [1] and -1.1 V in assay [2]. Besides, in assay [3], the minimal inhibitory concentration (MIC) was 16 µM (≈ 5.48 µg/mL).

`CCCNC1=C(Cl)C(=O)c2ccc(C)nc2C1=O`: the Activity in assay [1] was -0.56 V; in assay [2], -0.97 V. Further, the MIC in assay [3] stood at 128 µM (≈ 33.9 µg/mL).

In the case of `Cc1ccc2c(n1)C(=O)C(N1CCCCC1)=C(Cl)C2=O`, the Activity in assay [1] is -0.61 V; in assay [2] it was -1.17 V. For the same compound, the MIC in assay [3] amounted to 256 µM (≈ 74.4 µg/mL).

With `C#CCNC1=C(Cl)C(=O)c2cccnc2C1=O`, the figures for the Activity in assay [1] and in assay [2] were -0.49 V and -1.07 V, respectively. Besides, the MIC in assay [3] was found to be 128 µM (≈ 31.6 µg/mL).

As for `Cc1ccc2c(n1)C(=O)C(NCCc1ccccc1)=C(Cl)C2=O`, the figures for the Activity in assay [1] and in assay [2] were -0.7 V and -1.3 V, respectively. In addition, the MIC in assay [3] was found to be 16 µM (≈ 5.23 µg/mL).

For the compound `C#CCNC1=C(Cl)C(=O)c2ncccc2C1=O`, the values for the Activity in assay [1] and in assay [2] were -0.5 V and -1.1 V, respectively. The outcome in assay [6] was Active. Also, the MIC in assay [3] was determined as 8 µM (≈ 1.97 µg/mL).

On to `Cc1ccc2c(n1)C(=O)C(Cl)=C(N(C)C)C2=O`, for which the results for the Activity in assay [1] and in assay [2] were -0.62 V and -1.11 V, respectively. Also, in assay [3], the MIC amounted to 512 µM (≈ 128 µg/mL).

As for `CCCNC1=C(Cl)C(=O)c2nc(C)ccc2C1=O`, the Activity in assay [1] was -0.6 V; in assay [2] it was -1.17 V. Further, the MIC in assay [3] turned out to be 512 µM (≈ 136 µg/mL).

As to `CCCCCCCCNC1=C(Cl)C(=O)c2ncccc2C1=O`, the Activity in assay [1] is -0.67 V; in assay [2], -1.26 V. In assay [3], the MIC was 16 µM (≈ 5.13 µg/mL).

With `O=C1C(NCCc2ccccc2)=C(Cl)C(=O)c2ncccc21`, the Activity in assay [1] was -0.6 V; in assay [2], -1.15 V. For the same compound, the MIC in assay [3] was found to be 128 µM (≈ 40 µg/mL).

`Cc1ccc2c(n1)C(=O)C(N(C)C)=C(Cl)C2=O`: the Activity in assay [1] is -0.6 V; in assay [2], -1.13 V. Besides, in assay [3], the MIC was above 512 µM.

In the case of `COc1ccc(CNC2=C(Cl)C(=O)c3ncccc3C2=O)cc1`, the Activity in assay [1] is -0.61 V; in assay [2] it was -1.18 V. In assay [3], the MIC amounted to 32 µM (≈ 10.5 µg/mL).

Consider `Cc1ccc2c(n1)C(=O)C(Cl)=C(N1CCCCC1)C2=O`, for which the Activity in assay [1] is -0.57 V; in assay [2] it was -1.13 V. Besides, in assay [3], the MIC came out at 128 µM (≈ 37.2 µg/mL).

On to `Cc1ccc2c(n1)C(=O)C(Cl)=C(NCCc1ccccc1)C2=O`, for which the Activity in assay [1] was -0.73 V; in assay [2], -1.3 V. In assay [3], the MIC was determined as 128 µM (≈ 41.8 µg/mL).

`C#CCNC1=C(Cl)C(=O)c2nc(C)ccc2C1=O`: the figures for the Activity in assay [1] and in assay [2] were -0.55 V and -1.05 V, respectively. Moreover, the MIC in assay [3] turned out to be 64 µM (≈ 16.7 µg/mL).

Turning to `O=C1C(Cl)=C(Nc2ccccc2)C(=O)c2ncccc21`, the Activity in assay [1] is -0.42 V; in assay [2], -1 V. In assay [3], the MIC was determined as 512 µM (≈ 146 µg/mL).

On to `Cc1ccc2c(n1)C(=O)C(Cl)=C(Nc1ccccc1)C2=O`, for which the Activity in assay [1] was -0.47 V; in assay [2], -1.05 V. Besides, in assay [3], the minimal inhibitory concentration (MIC) was 512 µM (≈ 153 µg/mL).

Consider `CCCCCCCCNC1=C(Cl)C(=O)c2cccnc2C1=O`, for which the Activity was -0.68 V in assay [1] and -1.27 V in assay [2]. Moreover, in assay [3], the MIC was found to be 64 µM (≈ 20.5 µg/mL).

Consider `CC1=CC(=O)c2ccccc2C1=O`, for which the Activity is -0.7 V in assay [1] and -1.27 V in assay [2].

As to `O=C1C(NC2CCCCCCC2)=CC(=O)c2ncccc21`, in assay [7], it took 3.5 µM (≈ 0.995 µg/mL) to inhibit growth (MIC).

Regarding `O=C1C(Nc2ccccc2)=C(Cl)C(=O)c2ncccc21`, the figures for the Activity in assay [1] and in assay [2] were -0.46 V and -1.06 V, respectively. Moreover, the MIC in assay [3] was above 512 µM.

Consider `Cc1ccc2c(n1)C(=O)C(Cl)=C(NC(C)(C)C)C2=O`, for which the values for the Activity in assay [1] and in assay [2] were -0.69 V and -1.25 V, respectively. For the same compound, the MIC in assay [3] worked out at 256 µM (≈ 71.4 µg/mL).

Consider `CCCCCCCCNC1=C(Cl)C(=O)c2nc(C)ccc2C1=O`, for which the results for the Activity in assay [1] and in assay [2] were -0.72 V and -1.27 V, respectively. For the same compound, the minimum inhibitory concentration (MIC) in assay [3] worked out at 128 µM (≈ 42.9 µg/mL).

Take `Cc1ccc2c(n1)C(=O)C(Nc1ccccc1)=C(Cl)C2=O`: the Activity in assay [1] was -0.44 V; in assay [2], -0.9 V. Further, the MIC in assay [3] is 256 µM (≈ 76.5 µg/mL).

Take `COc1ccc(CNC2=C(Cl)C(=O)c3cccnc3C2=O)cc1`: the Activity was -0.63 V in assay [1] and -1.24 V in assay [2]. Besides, in assay [3], the MIC was found to be 16 µM (≈ 5.26 µg/mL).

For the compound `NNC(=O)c1ccncc1` [ISONIAZID], the MIC in assay [3] was 0.2 µM (≈ 0.0274 µg/mL).

Take `CCCNC1=C(Cl)C(=O)c2ncccc2C1=O`: the Activity in assay [1] is -0.6 V; in assay [2] it was -1.16 V. Besides, the MIC in assay [3] came out at 128 µM (≈ 32.1 µg/mL).

On to `O=C1C(Cl)=C(NCCc2ccccc2)C(=O)c2ncccc21`, for which the Activity in assay [1] is -0.64 V; in assay [2] it was -1.21 V. Further, the MIC in assay [3] was found to be 16 µM (≈ 5 µg/mL).

Regarding `CCCCCCCCCCCCCCc1ccc(NC2=C(Cl)C(=O)c3ncccc3C2=O)cc1`, the Activity in assay [4] was -0.78 V; in assay [5], -1.1 V. Besides, the MIC in assay [3] was above 512 µM.

With `CCCCCCCc1ccc(NC2=C(Cl)C(=O)c3ncccc3C2=O)cc1`, the results for the Activity in assay [1] and in assay [2] were -0.58 V and -1.15 V, respectively. Besides, the MIC in assay [3] was 64 µM (≈ 24.5 µg/mL).

Take `Cc1ccc2c(n1)C(=O)C(NC(C)(C)C)=C(Cl)C2=O`: the Activity in assay [1] was -0.59 V; in assay [2] it was -1.1 V. Further, in assay [3], the MIC is above 512 µM.

In assay [8], `O=C1C(NCCCl)=C(Cl)C(=O)c2ncccc21` registered an MIC of 8 µM (≈ 2.17 µg/mL).

Regarding `CCCNC1=C(Cl)C(=O)c2cccnc2C1=O`, the Activity in assay [1] is -0.59 V; in assay [2], -1.16 V. The MIC in assay [3] came out at 128 µM (≈ 32.1 µg/mL).

By MIC is commonly meant the lowest concentration that inhibits growth of the organism.
